Data from the NIST ThermoML archive (doi:10.1021/je050034s).

Tests used:
[1] = Molar enthalpy of transition or fusion; settings: Crystal
[2] = molar heat capacity at saturation pressure

c1ccc(Cc2ccccc2)cc1 [diphenylmethane]
Settings | Molar enthalpy of transition or fusion [kcal/mol] | Triple point temperature [K]
Crystal | – | 298.37
[1] | 4.543 | –

Settings | mass density [kg/m3] | vapor or sublimation pressure [kPa]
308.14 K, Liquid, Vibrating tube method | 996.7 | –
323.14 K, Liquid, Vibrating tube method | 985.3 | –
329.99 K, Liquid, Inclined piston gauge | – | 0.0261
339.99 K, Liquid, Inclined piston gauge | – | 0.0523
348.13 K, Liquid, Vibrating tube method | 965.6 | –
349.98 K, Liquid, Inclined piston gauge | – | 0.0995
359.97 K, Liquid, Inclined piston gauge | – | 0.1814
369.98 K, Liquid, Inclined piston gauge | – | 0.3181
373.12 K, Liquid, Vibrating tube method | 945.8 | –
379.98 K, Liquid, Inclined piston gauge | – | 0.5378
389.97 K, Liquid, Inclined piston gauge | – | 0.8793
398.12 K, Liquid, Vibrating tube method | 926.1 | –
399.97 K, Liquid, Inclined piston gauge | – | 1.395
408.21 K, Liquid, Twin ebulliometer | – | 2
409.97 K, Liquid, Inclined piston gauge | – | 2.155
414.97 K, Liquid, Inclined piston gauge | – | 2.651
415.11 K, Liquid, Twin ebulliometer | – | 2.666
419.97 K, Liquid, Inclined piston gauge | – | 3.243
423.12 K, Liquid, Vibrating tube method | 905.7 | –
425.34 K, Liquid, Twin ebulliometer | – | 4
432.99 K, Liquid, Twin ebulliometer | – | 5.333
444.38 K, Liquid, Twin ebulliometer | – | 7.999
448.11 K, Liquid, Vibrating tube method | 885.4 | –
452.93 K, Liquid, Twin ebulliometer | – | 10.67
459.84 K, Liquid, Twin ebulliometer | – | 13.33
467.03 K, Liquid, Twin ebulliometer | – | 16.66
473 K, Liquid, Twin ebulliometer | – | 19.93
473.11 K, Liquid, Vibrating tube method | 864.3 | –
480.86 K, Liquid, Twin ebulliometer | – | 25.02
488.78 K, Liquid, Twin ebulliometer | – | 31.17
496.76 K, Liquid, Twin ebulliometer | – | 38.56
498.11 K, Liquid, Vibrating tube method | 842.6 | –
504.79 K, Liquid, Twin ebulliometer | – | 47.37
512.88 K, Liquid, Twin ebulliometer | – | 57.81
521.02 K, Liquid, Twin ebulliometer | – | 70.11
523.11 K, Liquid, Vibrating tube method | 819.2 | –
529.22 K, Liquid, Twin ebulliometer | – | 84.53
537.47 K, Liquid, Twin ebulliometer | – | 101.31
545.78 K, Liquid, Twin ebulliometer | – | 120.78
554.14 K, Liquid, Twin ebulliometer | – | 143.23
562.56 K, Liquid, Twin ebulliometer | – | 169
571.03 K, Liquid, Twin ebulliometer | – | 198.46
579.55 K, Liquid, Twin ebulliometer | – | 231.99
588.13 K, Liquid, Twin ebulliometer | – | 269.98
743.8 K, Gas, DSC | 104.3 | –
754.8 K, Gas, DSC | 148.4 | –
760.6 K, Liquid, DSC | 417.7 | –
767.1 K, Liquid, DSC | 417.5 | –
769.8 K, Liquid, DSC | 397.2 | –
770 K, Gas, DSC | 191.2 | –
775.7 K, Gas, DSC | 220.3 | –
776.5 K, Liquid, DSC | 333.5 | –
777 K, Liquid, DSC | 304.2 | –

Settings | Critical temperature [K]
Liquid, DTA | 778

molar heat capacity [J/K/mol], [2]
Settings | Crystal | Liquid
5 K, Vacuum adiabatic calorimetry | 0.38 | –
5.364 K, Vacuum adiabatic calorimetry | 0.47 | –
6.296 K, Vacuum adiabatic calorimetry | 0.76 | –
7.218 K, Vacuum adiabatic calorimetry | 1.16 | –
8.187 K, Vacuum adiabatic calorimetry | 1.71 | –
9.195 K, Vacuum adiabatic calorimetry | 2.42 | –
10 K, Vacuum adiabatic calorimetry | 3.12 | –
10.21 K, Vacuum adiabatic calorimetry | 3.31 | –
11.33 K, Vacuum adiabatic calorimetry | 4.39 | –
12.6 K, Vacuum adiabatic calorimetry | 5.74 | –
13.99 K, Vacuum adiabatic calorimetry | 7.45 | –
15.53 K, Vacuum adiabatic calorimetry | 9.437 | –
17.24 K, Vacuum adiabatic calorimetry | 11.84 | –
19.13 K, Vacuum adiabatic calorimetry | 14.59 | –
20 K, Vacuum adiabatic calorimetry | 15.87 | –
21.21 K, Vacuum adiabatic calorimetry | 17.66 | –
23.51 K, Vacuum adiabatic calorimetry | 21.15 | –
26.07 K, Vacuum adiabatic calorimetry | 24.97 | –
28.93 K, Vacuum adiabatic calorimetry | 29.09 | –
30 K, Vacuum adiabatic calorimetry | 30.59 | –
32.11 K, Vacuum adiabatic calorimetry | 33.47 | –
35.66 K, Vacuum adiabatic calorimetry | 37.99 | –
39.62 K, Vacuum adiabatic calorimetry | 42.58 | –
40 K, Vacuum adiabatic calorimetry | 43 | –
44.02 K, Vacuum adiabatic calorimetry | 47.26 | –
48.94 K, Vacuum adiabatic calorimetry | 51.94 | –
50 K, Vacuum adiabatic calorimetry | 52.92 | –
50.87 K, Vacuum adiabatic calorimetry | 53.74 | –
52.95 K, Vacuum adiabatic calorimetry | 55.44 | –
54.43 K, Vacuum adiabatic calorimetry | 56.74 | –
55.01 K, Vacuum adiabatic calorimetry | 57.11 | –
57.89 K, Vacuum adiabatic calorimetry | 59.58 | –
59.91 K, Vacuum adiabatic calorimetry | 61.04 | –
60 K, Vacuum adiabatic calorimetry | 61.11 | –
63.59 K, Vacuum adiabatic calorimetry | 63.66 | –
65.43 K, Vacuum adiabatic calorimetry | 65.06 | –
69.82 K, Vacuum adiabatic calorimetry | 68.05 | –
70 K, Vacuum adiabatic calorimetry | 68.16 | –
76.62 K, Vacuum adiabatic calorimetry | 72.36 | –
78.19 K, Vacuum adiabatic calorimetry | 73.39 | –
80 K, Vacuum adiabatic calorimetry | 74.47 | –
81.13 K, Vacuum adiabatic calorimetry | 75.18 | –
84.19 K, Vacuum adiabatic calorimetry | 76.96 | –
85.52 K, Vacuum adiabatic calorimetry | 77.76 | –
88.47 K, Vacuum adiabatic calorimetry | 79.51 | –
90 K, Vacuum adiabatic calorimetry | 80.38 | –
96.79 K, Vacuum adiabatic calorimetry | 84.28 | –
100 K, Vacuum adiabatic calorimetry | 86.12 | –
105.91 K, Vacuum adiabatic calorimetry | 89.5 | –
115.55 K, Vacuum adiabatic calorimetry | 94.96 | –
120 K, Vacuum adiabatic calorimetry | 97.5 | –
125.31 K, Vacuum adiabatic calorimetry | 100.54 | –
135.12 K, Vacuum adiabatic calorimetry | 106.25 | –
140 K, Vacuum adiabatic calorimetry | 109.13 | –
145.06 K, Vacuum adiabatic calorimetry | 112.15 | –
155.05 K, Vacuum adiabatic calorimetry | 118.34 | –
160 K, Vacuum adiabatic calorimetry | 121.47 | –
165.03 K, Vacuum adiabatic calorimetry | 124.68 | –
175.01 K, Vacuum adiabatic calorimetry | 131.04 | –
180 K, Vacuum adiabatic calorimetry | 134.55 | –
185 K, Vacuum adiabatic calorimetry | 138.14 | –
195.05 K, Vacuum adiabatic calorimetry | 145.11 | –
200 K, Vacuum adiabatic calorimetry | 148.68 | –
205.14 K, Vacuum adiabatic calorimetry | 152.48 | –
215.25 K, Vacuum adiabatic calorimetry | 160.17 | –
220 K, Vacuum adiabatic calorimetry | 163.86 | –
225.34 K, Vacuum adiabatic calorimetry | 168.15 | –
235.38 K, Vacuum adiabatic calorimetry | 176.42 | –
240 K, Vacuum adiabatic calorimetry | 180.3 | –
245.37 K, Vacuum adiabatic calorimetry | 185.01 | –
246.51 K, Vacuum adiabatic calorimetry | 185.99 | –
255.32 K, Vacuum adiabatic calorimetry | 193.89 | –
257.33 K, Vacuum adiabatic calorimetry | 195.76 | –
260 K, Vacuum adiabatic calorimetry | 198.12 | –
268.6 K, Vacuum adiabatic calorimetry | 206.43 | –
279.29 K, Vacuum adiabatic calorimetry | 217.16 | –
280 K, Vacuum adiabatic calorimetry | 217.44 | –
289.28 K, Vacuum adiabatic calorimetry | 229.55 | –
289.37 K, Vacuum adiabatic calorimetry | 229.9 | –
298.15 K, Vacuum adiabatic calorimetry | 236.26 | 267.36
298.37 K, Vacuum adiabatic calorimetry | 236.5 | 267.48
300 K, Vacuum adiabatic calorimetry | – | 268.32
303.38 K, Vacuum adiabatic calorimetry | – | 270.07
305.34 K, Vacuum adiabatic calorimetry | – | 270.99
305.59 K, Vacuum adiabatic calorimetry | – | 271.14
313.82 K, Vacuum adiabatic calorimetry | – | 275.26
320 K, Vacuum adiabatic calorimetry | – | 278.43
325.59 K, Vacuum adiabatic calorimetry | – | 281.23
339.57 K, Vacuum adiabatic calorimetry | – | 288.4
340 K, Vacuum adiabatic calorimetry | – | 288.62
356.66 K, Vacuum adiabatic calorimetry | – | 297.31
360 K, Vacuum adiabatic calorimetry | – | 299.1
373.63 K, Vacuum adiabatic calorimetry | – | 306.34
380 K, Vacuum adiabatic calorimetry | – | 309.56
390.49 K, Vacuum adiabatic calorimetry | – | 314.87
400 K, Vacuum adiabatic calorimetry | – | 319.92
407.29 K, Vacuum adiabatic calorimetry | – | 323.8
420 K, Vacuum adiabatic calorimetry | – | 330.39
424.08 K, Vacuum adiabatic calorimetry | – | 332.47
438.41 K, Vacuum adiabatic calorimetry | – | 339.81
440 K, Vacuum adiabatic calorimetry | – | 340.5
460 K, Vacuum adiabatic calorimetry | – | 349.5
480 K, Small sample (50 mg) DSC | – | 358.67
500 K, Small sample (50 mg) DSC | – | 367.6
520 K, Small sample (50 mg) DSC | – | 376.3
540 K, Small sample (50 mg) DSC | – | 384.6
560 K, Small sample (50 mg) DSC | – | 392.7
580 K, Small sample (50 mg) DSC | – | 400.5
600 K, Small sample (50 mg) DSC | – | 407.9
620 K, Small sample (50 mg) DSC | – | 415.1
640 K, Small sample (50 mg) DSC | – | 422.3
660 K, Small sample (50 mg) DSC | – | 429.6
680 K, Small sample (50 mg) DSC | – | 437.4
700 K, Small sample (50 mg) DSC | – | 446.9
